How the values were obtained:
Type in all cases: cell-based
[1] = tested on: HEK-Blue IFNγ reporter cells (IFNγ-stimulated STAT1 SEAP reporter); assay: HEK-Blue IFNγ SEAP reporter assay for determining selectivity; parameters: IFN-γ (SEAP selectivity, IC50): scale not given here; details: 50 ng/mL human recombinant IFNγ; for IC50: Homo sapiens, HEK-Blue, read-out: IFN-γ (SEAP selectivity, IC50)
Method: (§1) Example B-3: HEK-Blue™ IL-2 and IFNγ Reporter Assays for Determining Selectivity
(§2) HEK-Blue™ IL-2 and IFNγ reporter cells with a stably-integrated cytokine receptor and STAT5 or STAT1 express STAT-inducible secreted embryonic alkaline phosphatase (SEAP) reporter gene upon cytokine stimulation. These cells were plated in DMEM (Gibco) containing 10% heat-inactivated FBS (Gibco) and 100 U/mL PenStrep (Gibco) at 37° C. under 5% CO2 conditions for 20-22 hours. The cells were then pretreated with serially diluted test compounds for 60 min prior to stimulation with either 4 ng/mL human recombinant IL-2 (Miltenyl Biotech) or 50 ng/mL human recombinant IFNγ (InvivoGen) for 24 hours. SEAP induction was measured using the QUANTI-Blue™ Solution (InvivoGen) according to the manufacturer's instructions.

[2] = tested on: HEK-Blue IFNα/β cells (IFNα-stimulated STAT1 SEAP reporter; TYK2 JH2); assay: HEK-Blue IFNα/β SEAP reporter assay for profiling TYK2 pseudokinase (JH2) inhibition; details: Homo sapiens, HEK-Blue, 1 ng/mL human recombinant IFNα, read-out: IFNα (TYK2 inhibitory activity, IC50)
Method: (§3) Example B-1: HEK-Blue™ IL-23 and IFNα/β Reporter Assays for Profiling TYK2 Pseudokinase (JH2) Inhibition
(§4) HEK-Blue™ IL-23 and IFNα/β cells with a stably-integrated cytokine receptor and STAT3 or STAT1 express STAT-inducible secreted embryonic alkaline phosphatase (SEAP) reporter gene upon cytokine stimulation. These cells are plated in DMEM (Gibco) containing 10% heat-inactivated FBS (Gibco) and 100 U/mL PenStrep (Gibco) at 37° C. under 5% CO2 conditions for 20-22 hours. The cells are then pretreated with serially diluted test compounds for 60 min prior to stimulation with either 10 ng/mL human recombinant IL-23 (Miltenyl Biotech) or 1 ng/mL human recombinant IFNα (InvivoGen) for 22-24 hours for IL-23 or 16-18 h for IFNα. SEAP induction is measured using the QUANTI Blue™ Solution (InvivoGen) according to the manufacturer's instructions.

[3] = tested on: HEK-Blue IL-23 cells (IL-23-stimulated STAT3 SEAP reporter; TYK2 JH2); assay: HEK-Blue IL-23 SEAP reporter assay for profiling TYK2 pseudokinase (JH2) inhibition; details: 10 ng/mL human recombinant IL-23, SEAP reporter, read-out: IL23 (TYK2 inhibitory activity, IC50)
Method: as §3, §4

[4] = tested on: HEK-Blue IL-2 reporter cells (IL-2-stimulated STAT5 SEAP reporter); assay: HEK-Blue IL-2 SEAP reporter assay for determining selectivity; details: 4 ng/mL human recombinant IL-2
Method: as §1, §2

Row | SMILES | IC50 [1] | IC50 [2] | IC50 [3] | IC50 [4] | IFN-γ (SEAP selectivity, IC50) [1]
1 | [2H]C([2H])([2H])NC(=O)c1nnc(NC(=O)C2CC2)cc1Nc1nccc2c1N(C)[C@@H](C)c1nn(C)nc1-2 (single isomer, unassigned) [Compound 94] | 300 to 1000 nM | < 30 nM | < 30 nM | > 1000 nM | 
2 | [2H]C([2H])([2H])NC(=O)c1nnc(NC(=O)C2CC2)cc1Nc1nccc2c1N(C)[C@H](C)c1nn(C)nc1-2 (single isomer, unassigned) [Compound 95] | > 1000 nM | 30 to 300 nM | < 30 nM | > 1000 nM | 
3 | [2H]C([2H])([2H])NC(=O)c1nnc(NC(=O)NC)cc1Nc1nccc2c1N(C)[C@@H](C)c1nn(C)nc1-2 (single isomer, unassigned) [Compound 100] | > 1000 nM | < 30 nM | < 30 nM | > 1000 nM | 
4 | [2H]C([2H])([2H])NC(=O)c1cnc(NC(=O)C2CC2)cc1Nc1cc(F)cc2c1N(C)[C@@H](C)c1nc(C)nn1-2 (single isomer, unassigned) [Compound 110] |  | 30 to 300 nM | < 30 nM | > 1000 nM | C/D
5 | [2H]C([2H])([2H])NC(=O)c1nnc(NC(=O)C2CC2)cc1Nc1cc(F)cc2c1N(C)[C@@H](C)c1nc(C)nn1-2 (single isomer, unassigned) [Compound 111] | > 1000 nM | 30 to 300 nM | < 30 nM | > 1000 nM | 
6 | [2H]C([2H])([2H])NC(=O)c1nnc(Nc2cc(C)nc(C)n2)cc1Nc1cccc2c1N(C)Cc1nc(C)nn1-2 [Compound 15, 4-((2,5-dimethyl-4,5-dihydro-[1,2,4]triazolo[1,5-a]quinoxalin-6-yl)amino)-6-((2,6-dimethylpyrimidin-4-yl)amino)-N-(methyl-d3)pyridazine-3-carboxamide] | < 30 nM | < 30 nM | < 30 nM | 300 to 1000 nM | 
7 | [2H]C([2H])([2H])NC(=O)c1nnc(NC(=O)NC)cc1Nc1cccc2c1N(C)Cc1nc(C)nn1-2 [Compound 19, 4-((2,5-dimethyl-4,5-dihydro-[1,2,4]triazolo[1,5-a]quinoxalin-6-yl)amino)-N-(methyl-d3)-6-(3-methylureido)pyridazine-3-carboxamide] | 300 to 1000 nM | 30 to 300 nM | < 30 nM | > 1000 nM | 
8 | [2H]C([2H])([2H])NC(=O)c1cnc(Nc2cc(C)nc(C)n2)cc1Nc1cccc2c1N(C)Cc1nc(C)nn1-2 [Compound 26, 4-((2,5-dimethyl-4,5-dihydro-[1,2,4]triazolo[1,5-a]quinoxalin-6-yl)amino)-6-((2,6-dimethylpyrimidin-4-yl)amino)-N-(methyl-d3)nicotinamide] | 30 to 300 nM | < 30 nM | < 30 nM | 300 to 1000 nM | 
9 | [2H]C([2H])([2H])NC(=O)c1nnc(NC(=O)C2CC2)cc1Nc1cccc2c1N(C)C([2H])([2H])c1nc(C)nn1-2 [Compound 35, 6-(cyclopropanecarboxamido)-4-((2,5-dimethyl-4,5-dihydro-[1,2,4]triazolo[1,5-a]quinoxalin-6-yl-4,4-d2)amino)-N-(methyl-d3)pyridazine-3-carboxamide] | 30 to 300 nM | < 30 nM | < 30 nM | > 1000 nM | 
10 | [2H]C([2H])([2H])NC(=O)c1cnc(NC(=O)C2CC2)cc1Nc1cccc2c1N(C)C([2H])([2H])c1nc(C)nn1-2 [Compound 36, 6-(cyclopropanecarboxamido)-4-((2,5-dimethyl-4,5-dihydro-[1,2,4]triazolo[1,5-a]quinoxalin-6-yl-4,4-d2)amino)-N-(methyl-d3)nicotinamide] | 300 to 1000 nM | < 30 nM | < 30 nM | > 1000 nM | 
11 | [2H]C([2H])([2H])NC(=O)c1nnc(NC(=O)C2CC2)cc1Nc1cccc2c1N(C)C1(CC1)c1nc(C)nn1-2 [Compound 39, 6-(cyclopropanecarboxamido)-4-((2′,5′-dimethyl-5′H-spiro[cyclopropane-1,4′-[1,2,4]triazolo[1,5-a]quinoxalin]-6′-yl)amino)-N-(methyl-d3)pyridazine-3-carboxamide] | 300 to 1000 nM | < 30 nM | < 30 nM | > 1000 nM | 
12 | [2H]C([2H])([2H])NC(=O)c1cnc(NC(=O)C2CC2)cc1Nc1cccc2c1N(C)C1(CC1)c1nc(C)nn1-2 [Compound 40, 6-(cyclopropanecarboxamido)-4-((2′,5′-dimethyl-5′H-spiro[cyclopropane-1,4′-[1,2,4]triazolo[1,5-a]quinoxalin]-6′-yl)amino)-N-(methyl-d3)nicotinamide] | > 1000 nM | < 30 nM | < 30 nM | > 1000 nM | 
13 | [2H]C([2H])([2H])NC(=O)c1nnc(NC(=O)C2CC2)cc1Nc1cccc2c1N(C)[C@H](C([2H])([2H])[2H])c1nc(C)nn1-2 [Compound 44, (R)-6-(cyclopropanecarboxamido)-4-((2,5-dimethyl-4-(methyl-d3)-4,5-dihydro-[1,2,4]triazolo[1,5-a]quinoxalin-6-yl)amino)-N-(methyl-d3)pyridazine-3-carboxamide] | > 1000 nM | < 30 nM | < 30 nM | > 1000 nM | 
14 | [2H]C([2H])([2H])NC(=O)c1cnc(NC(=O)C2CC2)cc1Nc1cccc2c1N(C)Cc1nn(C([2H])([2H])[2H])nc1-2 [Compound 49, 6-(cyclopropanecarboxamido)-N-(methyl-d3)-4-((5-methyl-2-(methyl-d3)-4,5-dihydro-2H-[1,2,3]triazolo[4,5-c]quinolin-6-yl)amino)nicotinamide] | 30 to 300 nM | < 30 nM | < 30 nM | > 1000 nM | 
15 | [2H]C([2H])([2H])NC(=O)c1cnc(NC(=O)NC)cc1Nc1cccc2c1N(C)Cc1nn(C)nc1-2 [Compound 50, 4-((2,5-dimethyl-4,5-dihydro-2H-[1,2,3]triazolo[4,5-c]quinolin-6-yl)amino)-N-(methyl-d3)-6-(3-methylureido)nicotinamide] | > 1000 nM | < 30 nM | < 30 nM | > 1000 nM | 
16 | [2H]C([2H])([2H])NC(=O)c1nnc(NC(=O)C2CC2)cc1Nc1cccc2c1N(C)C([2H])([2H])c1nn(C)nc1-2 [Compound 53, 6-(cyclopropanecarboxamido)-4-((2,5-dimethyl-4,5-dihydro-2H-[1,2,3]triazolo[4,5-c]quinolin-6-yl-4,4-d2)amino)-N-(methyl-d3)pyridazine-3-carboxamide] | 30 to 300 nM | < 30 nM | < 30 nM | 300 to 1000 nM | 
17 | [2H]C([2H])([2H])NC(=O)c1nnc(NC(=O)NC)cc1Nc1cccc2c1N(C)C([2H])([2H])c1nn(C)nc1-2 [Compound 54, 4-((2,5-dimethyl-4,5-dihydro-2H-[1,2,3]triazolo[4,5-c]quinolin-6-yl-4,4-d2)amino)-N-(methyl-d3)-6-(3-methylureido)pyridazine-3-carboxamide] | 300 to 1000 nM | < 30 nM | < 30 nM | > 1000 nM | 
18 | [2H]C([2H])([2H])NC(=O)c1cnc(NC(=O)NC)cc1Nc1cccc2c1N(C)C([2H])([2H])c1nn(C)nc1-2 [Compound 63, 4-((2,5-dimethyl-4,5-dihydro-2H-[1,2,3]triazolo[4,5-c]quinolin-6-yl-4,4-d2)amino)-N-(methyl-d3)-6-(3-methylureido)nicotinamide] | > 1000 nM | < 30 nM | < 30 nM | > 1000 nM | 
19 | [2H]C([2H])([2H])NC(=O)c1cnc(NC(=O)NC2CCC2)cc1Nc1cccc2c1N(C)Cc1nn(C)nc1-2 [Compound 64, 6-(3-cyclobutylureido)-4-((2,5-dimethyl-4,5-dihydro-2H-[1,2,3]triazolo[4,5-c]quinolin-6-yl)amino)-N-(methyl-d3)nicotinamide] | > 1000 nM | 30 to 300 nM | < 30 nM | > 1000 nM | 
20 | [2H]C([2H])([2H])NC(=O)c1cnc(NC(=O)NC2CC2)cc1Nc1cccc2c1N(C)Cc1nn(C)nc1-2 [Compound 66, 6-(3-cyclopropylureido)-4-((2,5-dimethyl-4,5-dihydro-2H-[1,2,3]triazolo[4,5-c]quinolin-6-yl)amino)-N-(methyl-d3)nicotinamide] | > 1000 nM | 30 to 300 nM | < 30 nM | > 1000 nM | 
